The record followed here is patent publication US7214534B2, “Isolated nucleic acid molecules encoding mutant μ opioid receptors” (Regents of the University of Minnesota, priority 2002, dated 2007).

Several values for one entry are separate records, joined by “and”; a condition that tells them apart may be missing. Identical values can stand only once.

Series [1] relates to wild-type mice. Briefly: Tail withdrawal antinociception test, wild-type mice. The class given is in vivo, mouse. The conditions noted are these: for ED50: Mus musculus, 0.5 h, read-out: ED50 tail withdrawal. As for the experimental part:
(§1) For tail withdrawal testing, mice were loosely wrapped in an adsorbent towel, and their tails were immersed about 2 cm into water heated to 53° C. or placed under radiant heat. The latency to tail withdrawal was recorded. A cut-off time of 24 seconds for warm water or 12 seconds for radiant heat was used to minimize tail damage. […] Percent maximum possible effects (% MPE) were calculated by the following formula: (measured latency−baseline latency)*100/(cut-off time−baseline latency). Each dose for each genotype involved 8–12 mice. ED50 values were derived from regression analysis on the linear portion of each dose-response curve or calculated by non-linear regression. A two way analysis of variance (ANOVA) (genotype and dose) was used to determine genetic differences among genotypes in the same dose groups.

Series [2] has as its system Cre/S196A mice. Put plainly: Tail withdrawal antinociception test, Cre/S196A mutant mice. The following applies: for ED50: Mus musculus, radiant heat. As for the experimental part:
as §1

Series [3] concerns wild-type mice. Put plainly: Acetic acid-induced writhing inhibition test, wild-type mice. The class given is in vivo, mouse. The conditions noted are these: for ED50: Mus musculus, ip, 0.6% acetic acid i.p. As for the experimental part: (§2) Writhing tests were conducted as follows. […] Writhing was counted for 20 minutes following the i.p. injection. At the same time, mice from each genotype were injected with saline s.c. plus acetic acid i.p., and the mean count of writhing of the saline group was calculated. The % MPE for writhing test was calculated by the following formula: (mean count of saline group−count of drug group)*100/(mean count of saline group).

Series [4] relates to Cre/S196A mice. Put plainly: Acetic acid-induced writhing inhibition test, Cre/S196A mutant mice. The format is in vivo, mouse. The following applies: for ED50: Mus musculus, ip, 0.6% acetic acid i.p. As for the experimental part: as §2
In series [5] the test system is μ opioid receptor knockout mice. Put plainly: Nalorphine antinociception in μ opioid receptor knockout mice. The format is in vivo, mouse. The following applies: μ opioid receptor knockout mice (data not shown).
Series [6] has as its target T1, μ opioid receptor (wild-type) (Mus musculus, UniProt P42866).
T1 construct: Brain membranes were prepared from both wild-type mice; from tissue; host or cells: mouse brain membranes (wild-type littermates)
Put plainly: [3H]DAMGO saturation binding (Scatchard analysis), brain membranes of wild-type mice. As to the method: (§3) Approximately 200–350 μg of membranes were used in each assay.

Series [7] addresses T2, μ opioid receptor S196A mutant (Mus musculus, UniProt P42866, S196A).
T2 construct: brain membranes from homozygous Cre/S196A (HOMO) mutant mice; from tissue; host or cells: brain membranes of homozygous Cre/S196A knock-in mice
Briefly: [3H]DAMGO saturation binding (Scatchard analysis), brain membranes of homozygous Cre/S196A mice. The following applies: listed as [^3H]DAMGO. As for the experimental part: as §3

Where [8] appears, read: read-out: ED50 tail withdrawal, homozygous Cre/S196A mice, 30 minutes after morphine and nalorphine, 12 minutes after naloxone injection.

T2 sequence (P42866 whole entry S196A): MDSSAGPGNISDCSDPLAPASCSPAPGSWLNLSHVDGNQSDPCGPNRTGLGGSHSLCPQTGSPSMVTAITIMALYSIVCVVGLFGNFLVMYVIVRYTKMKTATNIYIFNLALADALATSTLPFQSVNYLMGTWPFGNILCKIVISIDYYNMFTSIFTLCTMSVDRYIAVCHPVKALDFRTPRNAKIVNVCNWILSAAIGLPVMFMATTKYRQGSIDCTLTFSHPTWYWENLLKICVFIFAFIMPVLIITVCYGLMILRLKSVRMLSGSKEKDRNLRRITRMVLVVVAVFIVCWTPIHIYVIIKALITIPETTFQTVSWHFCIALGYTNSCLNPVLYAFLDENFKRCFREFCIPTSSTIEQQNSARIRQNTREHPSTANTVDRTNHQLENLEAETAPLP
T1 sequence (P42866 whole entry): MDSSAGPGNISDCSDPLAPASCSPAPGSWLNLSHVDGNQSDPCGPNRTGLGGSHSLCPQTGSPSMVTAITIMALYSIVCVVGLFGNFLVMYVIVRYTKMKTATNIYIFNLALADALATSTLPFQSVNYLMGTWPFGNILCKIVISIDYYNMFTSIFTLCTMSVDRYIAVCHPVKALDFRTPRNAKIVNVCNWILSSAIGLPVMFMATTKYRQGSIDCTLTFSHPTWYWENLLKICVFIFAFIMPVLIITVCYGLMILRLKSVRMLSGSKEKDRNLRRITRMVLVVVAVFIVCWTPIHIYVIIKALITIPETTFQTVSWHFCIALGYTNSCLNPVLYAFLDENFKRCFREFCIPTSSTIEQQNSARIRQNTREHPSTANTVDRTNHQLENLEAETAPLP

For the compound `C=CCN1CC[C@]23c4c5ccc(O)c4O[C@H]2[C@@H](O)C=C[C@H]3[C@H]1C5` [nalorphine], the ED50 amounted to 0.61 mg/kg in the series with wild-type mice [1], 0.89 mg/kg in the series with Cre/S196A mice [2] (setting [8]), 0.37 mg/kg with wild-type mice [3] and 0.27 mg/kg in the series with Cre/S196A mice [4] (homozygous Cre/S196A mice). In addition, in the series on wild-type mice [1] (wild-type mice), the “maximal response, of the maximal morphine response, tail withdrawal” value amounted to 24±5%. In the series with Cre/S196A mice [2] (homozygous Cre/S196A mice, maximal dose tested, 10 mg/kg), the “antinociceptive response, of the morphine maximal response, tail withdrawal” value is listed as 68±5%. Moreover, the “maximal response, of the maximal morphine response, writhing” value in the series on wild-type mice [3] stood at 44±3%. Also, the “maximal antinociceptive response compared with morphine, inhibition of writhing” value in the series with Cre/S196A mice [4] (homozygous Cre/S196A mice, dose of 1 mg/kg) was “same maximal antinociceptive response as morphine”. Also, the antinociceptive effect entry in series [5] is listed as “absence of nalorphine effect”.
`CN1CC[C@]23c4c5ccc(O)c4O[C@H]2[C@@H](O)C=C[C@H]3[C@H]1C5` [morphine]: the ED50 in the series with wild-type mice [1] was found to be 4.4 mg/kg; in the series on Cre/S196A mice [2] (read-out: ED50 tail withdrawal, heterozygous Cre/S196A mice) it was 3.47 mg/kg; with Cre/S196A mice [2] (setting [8]), 3.2 mg/kg; in the series on wild-type mice [3] it was 0.48 mg/kg; with Cre/S196A mice [4] (heterozygous Cre/S196A mice), 0.68 mg/kg; with Cre/S196A mice [4] (homozygous Cre/S196A mice) it was 0.5 mg/kg.
For `C[C@@H](NC(=O)[C@@H](N)Cc1ccc(O)cc1)C(=O)NCC(=O)N(C)[C@@H](Cc1ccccc1)C(=O)NCCO` [DAMGO, [D-Ala^1.N-McPhe^4.Gly^5-ol]enkephalin], the Bmax in series [6] was 113±4.3 fmole/mg-protein; in series [7], 17.5±2.3 fmol/mg protein and 17.5 fmol/mg protein.
Consider `C=CCN1CC[C@]23c4c5ccc(O)c4O[C@H]2C(=O)CC[C@@]3(O)[C@H]1C5` [naloxone], for which, in the series on wild-type mice [1] (wild-type mice, doses of 0.1 to 10 mg/kg), the “antinociceptive response, tail withdrawal” value is recorded as “did not produce significant antinociceptive responses”. Besides, the results for the ED50 in the series with Cre/S196A mice [2] (setting [8]) and with Cre/S196A mice [4] (homozygous Cre/S196A mice) were 1.32 mg/kg and 0.22 mg/kg, respectively. The toxic effects result in the series with Cre/S196A mice [2] (both the mutant and the wild-type mice at higher dosages) is recorded as “increasing toxic effects”. In addition, the “antinociceptive response, writhing” value in the series on wild-type mice [3] (doses of 0.1 to 10 mg/kg) is reported as “did not produce significant antinociceptive responses”. In the series with Cre/S196A mice [4] (Cre/S196A mice), the “maximal response, of that observed with morphine, writhing inhibition” value stood at 45±3.
